Measured values from patent US20250144049A1, “METHODS, COMPOSITIONS, AND USES RELATED TO THE TREATMENT AND PREVENTION OF LEIGH SYNDROME” (Stealth BioTherapeutics Inc., priority 2023, published 2025).

Tests used:
15-lipoxygenase (15-LO) = test: 15(S)-HETE ELISA following RSL3 treatment, healthy fibroblasts; assay type: cell-based, human; conditions: 700 nM RSL3, 1 μM compound, FIG. 10; for inhibition of 15-lipoxygenase (15(S)-HETE in supernatant): 24 hours
Description: Samples for the 15(S)-HETE ELISA were generated by the RSL3 cytoprotection assay described above. Healthy or Leigh fibroblasts were resuspended in assay medium, seeded at 200,000 cells per well in a clear, tissue culture-treated, 24-well plate. Cells were incubated at 37° C. for 24 hours. Supernatant was aspirated from each well following the incubation.
Fibroblasts from both a healthy individual and a patient diagnosed with Leigh syndrome were examined (but not all compounds were examined in each cell type). Activation of ferroptosis has been implicated as a driver of epilepsy, which is commonly associated with Leigh syndrome. […] Kahn-Kirby et al. PLOS One. […] As a key regulator of ferroptosis, 15-LO serves as a rational therapeutic target in Leigh syndrome.

[1] = test system: Healthy (GM08402) fibroblasts; test: Erastin cytoprotection assay, healthy fibroblasts; assay type: cell-based, human; conditions: 2 μM erastin, 24 hours, FIG. 12
Description: (§1) Briefly, Healthy (GM08402) or Leigh (GM03672) fibroblasts were resuspended in assay medium, seeded at 10,000 cells per well in a clear, tissue cultured-treated, 96-well plate, and incubated at 37° C. overnight. Following the incubation, supernatant was manually aspirated from wells, taking care not to disrupt cells. Fibroblasts were co-treated in a final volume of 100 μL with 2 μM erastin (Millipore Corp., Cat #), 250 μM ferric ammonium citrate (FAC), 50 µM ascorbic acid (AA), and a titration of one of each of Compounds 1 to 4 or Vatiquinone ranging from 10 to 1000 nM. Following another 24-hour incubation at 37° C., cell viability was measured using the CellTiter-Glo Luminescent Cell Viability Kit (ProMega) per Manufacturer's instructions. Luminescence units were quantified by GEN5 software on a BioTek SYNERGY neo2 plate reader (LUM filter).
(§2) Briefly, erastin, like RSL3, is known to induce ferroptosis. […] Erastin was incubated with cell fibroblasts for 24 hours to induce ferroptosis. Cells were co-treated with each of Compounds 1 to 4, or Vatiquinone as the test articles. Test articles were administered at a range of concentrations to derive a curve. Cell viability was determined using a commercially available kit that measures ATP production. […] An increase in cell viability as determined by the assay is considered to be protective against ferroptosis.

[2] = test system: Leigh (GM03672) fibroblasts; test: Erastin cytoprotection assay, Leigh fibroblasts; assay type: cell-based, human; conditions: 2 μM erastin, 24 hours, FIG. 13
Description: as §1, §2

[3] = Pharmacokinetics of Compound 3 and Compound 4 after five daily subcutaneous doses, plasma, heart, brain; assay type: in vivo, C57BL/6 mice; conditions: for tolerability: dose levels up to 60 mg/kg, SC injection, 5 daily doses
Description: • Animals: Male/C57Bl/6 mice/-18-25 grams were received from an approved vendor. • Fasting was not required for this study. • Body weights were recorded prior to dose administration. The volume of each dose delivered (mL/kg) was based on each individual animal's body weight. • This was a multiple dose terminal study dosed once per day over 5 days. Mice were taken down following their 5th and final dose. • Doses were administered in accordance with test facility standard operating procedures. […] Any abnormalities were recorded. • Pre-formulated Compound 3 and Compound 4 were provided by Study sponsor ready to be dosed for each day in accordance with the Study Design set forth in Table 1, below.
b) Sample collection—Post Dosing: • Terminal blood samples were collected via cardiac puncture following inhalation of anesthesia in accordance with test facility standard operating procedures. • Blood samples were collected into tubes with appropriate anticoagulant. The tubes were stored on wet ice until processed to plasma by centrifugation (3500 rpm at 5° C. for 10 minutes) within 20 minutes of collection. Sample aliquots of 100 μL were transferred into individual uniquely labeled matrix tubes and stored at nominal −80° C. until transferred to analytical chemistry for analysis by LC/MS/MS. • Immediately following each terminal blood collection for all groups, animals were sacrificed and perfused with cold PBS. The following tissues were collected: heart and brain in accordance with Table 2. • Plasma and tissue samples were processed for analysis by LC/MS/MS to determine the amounts/concentrations reported in the FIGS. 18-21.

[4] = test system: Leigh fibroblasts (GM03672); test: Mitochondrial membrane potential (TMRM flow cytometry) in RSL3-treated Leigh fibroblasts; assay type: cell-based, human; conditions: 1 μM RSL3 with 1 μM compound, 4 hours
Description: Leigh fibroblasts (GM03672) were seeded in a 24-well, tissue culture-treated plate in complete MEM (MEM+15% FBS+1% penicillin/streptomycin) at a density of 1×10^5 cells per 500 μL and incubated overnight at 37° C. at 5% CO2. Cells were treated for 4 hours at 37° C. with either 1 μM RSL3, 1 μM RSL3 with 1 μM Compound 3 or media for untreated cells. Following the incubation, supernatant was removed and cells were treated with 0.25% trypsin for 5 min at 37° C. Trypsin was neutralized with an equal part MEM. Cells were dislodged with gentle pipetting and pelleted at 300×g for 5 minutes. Pellets were resuspended in 500 μL Fluobrite DMEM and cells were transferred to a 96-well, v-bottom plate. Cells were stained with 20 nM MitoTracker Green and 100 nM tetramethylrhodamine methyl ester (TMRM) Samples were incubated for 25 minutes at 37° C. Each well was mixed immediately prior to analysis to resuspend settled cells. Fluorescence intensity was measured on the BD Accuri C6 Plus Flow Cytometer. A minimum of 10,000 events per sample was collected. Data analysis was performed using FloJo vs. 10. Gating was performed by establishing an initial forward scatter vs. side scatter gate. […] Median fluorescence intensity (MFI) of TMRM fluorescence was determined. Using GraphPad Prism 10, statistical significance between groups was determined by One-way ANOVA. […]

CC1=C(C)C(=O)C(CC[C@@](C)(O)COCCC[Si](C)(C)C)=C(C)C1=O [Compound 3]
inhibition of 15-lipoxygenase (15(S)-HETE in supernatant) (15-lipoxygenase (15-LO)): inhibited 15-lipoxygenase
15-lipoxygenase inhibition compared among test articles (15-lipoxygenase (15-LO)): superior to Compounds 2, 4 and Vatiquinone
protective effect compared among test articles [1]: superior in their protective effect
protective effect compared among test articles [2]: superior in their protective effect
plasma exposure versus dose ([3]; mouse, 20 mg/kg and 60 mg/kg SC): roughly proportional to dose
heart exposure based on AUC, Compound 3 versus Compound 4 ([3]; mouse, SC): slightly higher
exposure (Cmax and AUC) heart versus brain ([3]; mouse, SC, after 5th dose): higher in heart than in brain
tolerability ([3]; mouse): well tolerated
concentration in heart tissue ([3]; mouse, up to 2 hours post administration after 5 days, Compound 3 20 and 60 mg/kg, Compound 4 60 mg/kg SC, FIG. 18): up to microgram quantities of drug per gram of heart tissue
concentration in brain tissue ([3]; mouse, up to 2 hours post administration after 5 days, Compound 3 20 and 60 mg/kg, Compound 4 60 mg/kg SC, FIG. 19): up to microgram quantities of drug per gram of brain tissue
protection from loss of mitochondrial membrane potential (TMRM MFI) [4]: protective

CC1=C(C)C(=O)C(CC[C@](C)(O)CCCCCCCCC(F)(F)F)=C(C)C1=O [Compound 4]
inhibition of 15-lipoxygenase (15(S)-HETE in supernatant) (15-lipoxygenase (15-LO)): inhibited 15-lipoxygenase
15-lipoxygenase inhibition compared among test articles (15-lipoxygenase (15-LO)): roughly equivalent protective effect
protective effect compared among test articles [1]: about equally protective
protective effect compared among test articles [2]: about equally protective
brain exposure based on AUC, Compound 4 versus Compound 3 ([3]; male, C57BL/6, mouse, in vivo, sc): somewhat higher than Compound 3
tolerability ([3]; mouse): well tolerated
Tmax, Compound 4 versus Compound 3 ([3]; mouse, in vivo, sc): typically later
exposure (Cmax and AUC) heart versus brain ([3]; mouse, in vivo, sc): no difference
half-life, Compound 4 versus Compound 3 ([3]; mouse, in vivo, sc): tended to be longer
protection from loss of mitochondrial membrane potential (TMRM MFI) [4]: protective
